Measured values from patent publication US9682090B2, “Methods for treating and preventing prostate cancer bone metastases” (University of Washington, priority 2014, dated 2017).

How the values were obtained:
[1] = system: MC3T3-E1 cells; assay: Inhibition of LuCaP 23.1 CM-induced mineralization in MC3T3-E1 cells (Alizarin Red); format: cell-based, mouse; settings: 5 μM PA
Experimental: (§1) Cultured cells, HCO or MC3T3-E1, were seeded at 50,000 cells/well in MEM and 10% FBS. MM was added to all cultures 1-2 days after seeding and replaced every other day. MM, LuCaP 23.1 CM (5%, 10%, or 20%), PAP, lyophilized powder obtained from human prostatic fluid (CSI 14633A; CELL SCIENCES®, Canton, Mass.) or phosphonic acid, P-[phenyl[(phenylmethyl)amino]methyl]- (CAS#25881-35-0; AURORA FINE CHEMICALS™ LLC, San Diego, Calif.) was added to cultures typically on day 5-6, before mineralization occurred. After mineralization, cells were fixed in 10% formalin for 20 minutes and then washed. 2% Alizarin Red was added to air-dried plates. After washing, retained dye was extracted in a solution of 20% methanol and 10% acetic acid in water, and absorbance was measured at 405 nm.
(§2) The benzylaminophosphonic acids are inhibitors of PAP (see Beers S A, et al. (1996) Bioorg Med Chem 4:1693-1701). […] To determine if PA would reduce LuCaP 23.1 CM associated mineralization, MC3T3-E1 cells were treated with 5% to 20% LuCaP 23.1 CM with 5 μM PA.

[2] = molecular target: T1, PAP (Homo sapiens, UniProt P15309); assay: Inhibition of PAP-induced mineralization in MC3T3-E1 cells (Alizarin Red); format: cell-based; design: PAP, lyophilized powder obtained from human prostatic fluid; purchased CELL SCIENCES, Canton, Mass; CSI 14633A; host or cells: natural protein from human prostatic fluid; added to mouse MC3T3-E1 cells; settings: MC3T3-E1 cells treated with 0.05 units of PAP
T1 sequence (P15309 33-386): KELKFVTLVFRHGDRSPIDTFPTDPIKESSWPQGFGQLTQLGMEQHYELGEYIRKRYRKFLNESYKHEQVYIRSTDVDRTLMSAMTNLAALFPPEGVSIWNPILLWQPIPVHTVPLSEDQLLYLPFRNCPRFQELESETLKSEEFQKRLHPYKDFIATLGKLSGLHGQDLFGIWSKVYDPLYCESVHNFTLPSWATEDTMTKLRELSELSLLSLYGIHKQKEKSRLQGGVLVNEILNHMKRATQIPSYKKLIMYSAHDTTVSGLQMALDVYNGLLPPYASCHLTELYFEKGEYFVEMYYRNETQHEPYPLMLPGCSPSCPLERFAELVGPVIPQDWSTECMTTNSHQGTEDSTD
Experimental: as §1, §2

[3] = system: MC3T3-E1 cells; assay: Alizarin Red mineralization assay in MC3T3-E1 cells; format: cell-based, mouse; settings: PA 25 μM down to 0.2 μM, MC3T3-E1 cells without PAP
[4] = molecular target: T1, PAP; settings: Vovk et al. 2008; cited from earlier work

SMILES	effect on mineralization ([1]; 5% LuCaP 23.1 CM)	effect on mineralization ([1]; 10% LuCaP 23.1 CM)	effect on mineralization ([1]; 20% LuCaP 23.1 CM)	decrease in mineralization ([2]; 3.15 μM PA) [%]	decrease in mineralization ([2]; 6.25 μM PA) [%]	decrease in mineralization ([2]; 12.5 μM PA) [%]	decrease in mineralization ([2]; 25 μM PA) [%]	lowest PA concentration with significant effect on mineralization ([2]; PA tested 25 μM to 0.2 μM) [µM]	inhibition of mineralization by PA alone [3]	PAP inhibition [4]
O=P(O)(O)C(NCc1ccccc1)c1ccccc1 (stereo not shown) [PA, [phenyl[(phenylmethyl)amino]methyl]-phosphonic acid]	significantly reduced mineralization	significantly reduced mineralization	significantly reduced mineralization	97.9	92.1	95.6	97.6	0.4	No significant inhibition	
O=P(O)(O)[C@@H](NCc1ccccc1)c1ccccc1 (single isomer, unassigned) [R enantiomer of P-[phenyl[(phenylmethyl)amino]methyl]-, P-[phenyl[(phenylmethyl)amino]methyl]-]										potent inhibitor
